Results as given in patent US8076324B2, “Di(hetero)arylcyclohexane derivatives, their preparation, their use and pharmaceutical compositions comprising them” (Sanofi-Aventis, priority 2007, dated 2011).

Each compound was assayed against T1, myocardial ATP-sensitive potassium channel (SUR2A/Kir6.2) (UniProt Q61743+Q63563) (assay: Rubidium efflux test on HEK293 cells transfected with SUR2A and Kir6.2 (myocardial action)). Conditions: HEK293 cells transfected with SUR2A/Kir6.2; KATP channels opened by rilmakalim; 25 min incubation; read-out: IC50 values for the inhibition of the rubidium efflux.
T1 construct: expressed in transfected cells
Assay type: cell-based, SUR2A from the rat, Kir6.2 from the mouse
Procedure: 1) Action on the SUR2A/Kir6.2 potassium channel (myocardial action) The action of the compounds on the ion transport through the myocardial ATP-sensitive potassium channel (SUR2A/Kir6.2) was determined in the rubidium efflux test system described below on human embryonic kidney cells HEK293 which were transfected with the components SUR2A and Kir6.2 (cf. Weyermann et al., Naunyn-Schmiedeberg's Arch. Pharmacol. 369, 374-381 (2004)).
The HEK293 cells were cultured at 37° C. in a humidified air atmosphere with 7% carbon dioxide in minimal essential medium with Earle's salts and L-glutamine (MEM, Gibco), which was supplemented with 10% fetal calf serum and zeozin (0.36 mg/ml) and geneticin (0.75 mg/ml). The transfection of the cells and the preparation of a cell line with stable expression of Kir6.2 from the mouse (accession number AF037313) and SUR2A from the rat (accession number D83598/L40624) were carried out as described in Giblin et al., J. Biol. Chem. 274, 22652-22659 (1999).
60 000 transfected cells per well were inoculated into a poly-D-lysine-coated 96-well microtiter plate (Greiner #650 201). After incubation for 24 h at 37° C., the cells were washed three times with buffer 1 (150 mM NaCl, 2 mM CaCl2, 0.8 mM NaH2PO4, 1 mM MgCl2, 5 mM glucose, 25 mM HEPES, pH=7.4). Subsequently, the buffer solution was replaced by 100 μl of rubidium loading buffer (buffer 1 with 5.4 mM RbCl) and the cells were incubated for a further 3 h at 37° C. The rubidium loading buffer was then removed by washing the cells three times with 200 μl each of potassium chloride wash buffer (buffer 1 with 5.4 mM KCl). After addition of the test substances (70 μl; dissolved in potassium chloride wash buffer with addition of DMSO), the KATP channels of the cells were opened by addition of 70 μl of rilmakalim (2 μM) (cf. Krause et al., Pflügers Arch. 429, 625-635 (1995)) and the cells were incubated at 37° C. for 25 min. Subsequently, the cell supernatants were transferred to a new 96-well microtiter plate and the cells were lyzed by addition of 200 μl of lysis buffer (buffer 1 with 1% Triton X-100). The concentrations of Rb^+ in the cell supernatant and in the cell lyzate were measured by means of atomic absorption spectroscopy using an Al 1200 apparatus (Aurora Instruments Ltd.).
The Rb^+ efflux rate was calculated as [Rb^+SN]/[Rb^+total], wherein [Rb^+SN] is the amount of Rb^+ in the cell supernatant and [Rb^+total] is the sum of the amounts of Rb^+ in the cell supernatant and cell lyzate. IC50 values for the inhibition of the rubidium efflux were calculated with the aid of the Hill equation.

T1 sequence (Q63563 whole entry): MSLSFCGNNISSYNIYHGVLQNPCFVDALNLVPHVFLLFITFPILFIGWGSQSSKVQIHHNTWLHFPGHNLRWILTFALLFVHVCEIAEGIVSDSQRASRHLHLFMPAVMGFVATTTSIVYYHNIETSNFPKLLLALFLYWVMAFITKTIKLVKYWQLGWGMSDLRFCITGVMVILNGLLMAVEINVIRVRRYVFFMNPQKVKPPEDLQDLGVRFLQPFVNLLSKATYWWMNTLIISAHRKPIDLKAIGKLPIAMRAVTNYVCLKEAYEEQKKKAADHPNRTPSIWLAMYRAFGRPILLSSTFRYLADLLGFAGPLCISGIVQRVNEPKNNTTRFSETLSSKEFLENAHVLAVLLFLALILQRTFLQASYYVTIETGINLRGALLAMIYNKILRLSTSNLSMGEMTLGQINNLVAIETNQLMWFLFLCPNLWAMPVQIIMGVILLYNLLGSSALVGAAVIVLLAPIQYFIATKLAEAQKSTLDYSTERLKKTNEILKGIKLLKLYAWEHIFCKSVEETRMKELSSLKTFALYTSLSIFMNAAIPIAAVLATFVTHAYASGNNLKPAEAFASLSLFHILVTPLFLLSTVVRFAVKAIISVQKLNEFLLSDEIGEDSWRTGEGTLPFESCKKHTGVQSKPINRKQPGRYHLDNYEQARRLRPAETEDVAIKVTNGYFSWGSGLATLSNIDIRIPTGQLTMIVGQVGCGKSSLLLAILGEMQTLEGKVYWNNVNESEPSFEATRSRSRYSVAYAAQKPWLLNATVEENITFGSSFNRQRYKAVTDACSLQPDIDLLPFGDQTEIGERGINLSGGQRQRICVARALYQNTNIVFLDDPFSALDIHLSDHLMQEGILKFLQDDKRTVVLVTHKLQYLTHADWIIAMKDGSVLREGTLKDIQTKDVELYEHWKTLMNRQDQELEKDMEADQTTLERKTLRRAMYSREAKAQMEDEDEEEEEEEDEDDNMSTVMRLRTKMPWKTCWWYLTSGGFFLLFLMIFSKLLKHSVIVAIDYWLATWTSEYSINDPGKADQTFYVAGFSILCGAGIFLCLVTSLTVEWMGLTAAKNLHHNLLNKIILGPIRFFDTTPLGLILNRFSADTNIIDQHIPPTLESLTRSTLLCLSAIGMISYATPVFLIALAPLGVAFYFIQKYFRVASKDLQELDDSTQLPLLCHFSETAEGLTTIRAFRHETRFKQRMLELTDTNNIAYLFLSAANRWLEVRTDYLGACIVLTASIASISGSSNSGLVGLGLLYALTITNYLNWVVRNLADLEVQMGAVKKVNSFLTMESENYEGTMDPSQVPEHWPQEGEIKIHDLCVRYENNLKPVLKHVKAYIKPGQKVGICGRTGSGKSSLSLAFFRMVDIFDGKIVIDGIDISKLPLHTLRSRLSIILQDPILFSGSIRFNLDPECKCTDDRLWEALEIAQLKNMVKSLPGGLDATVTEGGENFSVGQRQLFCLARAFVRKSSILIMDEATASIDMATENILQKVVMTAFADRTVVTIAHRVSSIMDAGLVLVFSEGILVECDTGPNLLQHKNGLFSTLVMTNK
T1 sequence (Q61743 whole entry): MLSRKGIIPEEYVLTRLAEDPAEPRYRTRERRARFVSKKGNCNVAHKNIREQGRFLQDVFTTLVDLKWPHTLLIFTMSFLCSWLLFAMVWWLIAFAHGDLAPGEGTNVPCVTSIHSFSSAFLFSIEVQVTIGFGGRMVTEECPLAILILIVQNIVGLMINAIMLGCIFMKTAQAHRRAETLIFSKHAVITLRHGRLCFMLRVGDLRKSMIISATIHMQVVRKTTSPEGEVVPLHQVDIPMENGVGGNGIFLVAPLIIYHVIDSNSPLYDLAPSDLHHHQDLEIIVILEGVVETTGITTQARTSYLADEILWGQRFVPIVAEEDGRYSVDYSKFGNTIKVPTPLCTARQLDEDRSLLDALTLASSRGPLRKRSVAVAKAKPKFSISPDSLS

Compound | IC50 [nM]
CC(C)(C)S(=O)(=O)c1cc(F)cc([C@]2(OCC3CC3)CC[C@](C(=O)O)(c3ccc(F)cc3)CC2)c1 [Example 304-3, Cis-4-Cyclopropylmethoxy-4-[3-fluoro-5-(2-methylpropane-2-sulfonyl)phenyl]-1-(4-fluorophenyl)cyclohexanecarboxylic Acid] | < 1000
Cc1c(F)cc([C@]2(OCC3CC3)CC[C@](C(=O)O)(c3ccc(F)cc3)CC2)cc1S(=O)(=O)C(C)C [Example 304-4, Cis-4-Cyclopropylmethoxy-4-[3-fluoro-4-methyl-5-(propane-2-sulfonyl)phenyl]-1-(4-fluorophenyl)cyclohexanecarboxylic Acid] | < 1000
O=C(O)C1(c2ccccc2)CCC(OCCC2CC2)(c2ccc(F)cc2)CC1 (stereo not shown) [Example 306, 4-(2-Cyclopropylethoxy)-4-(4-fluorophenyl)-1-phenylcyclohexanecarboxylic Acid] | < 1000
COc1ccc(-c2cc([C@]3(OCC4CC4)CC[C@@](C(=O)O)(c4ccccc4)CC3)n(CC3CC3)n2)cc1 [Example 319, Trans-4-Cyclopropylmethoxy-4-[2-cyclopropylmethyl-5-(4-methoxyphenyl)-2H-pyrazol-3-yl]-1-phenylcyclohexanecarboxylic Acid] | < 1000
O=C(O)[C@]1(c2ccccc2)CC[C@@](OCC2CC2)(c2nc(-c3ccccc3)cs2)CC1 [Example 333-1, Cis-4-Cyclopropylmethoxy-1-phenyl-4-(4-phenylthiazol-2-yl)cyclohexanecarboxylic Acid] | < 1000
O=C(O)[C@]1(c2ccccc2)CC[C@](OCC2CC2)(c2nc(-c3ccccc3)cs2)CC1 [Example 333-2, Trans-4-Cyclopropylmethoxy-1-phenyl-4-(4-phenylthiazol-2-yl)cyclohexanecarboxylic Acid] | < 1000
O=C(O)[C@]1(c2ccc(F)cc2)CC[C@@](OCC2CC2)(c2nccn2CC2CC2)CC1 [Example 364] | < 1000
Cc1nc([C@]2(OCC3CC3)CC[C@](C(=O)O)(c3ccc(F)cc3)CC2)n(CC2CC2)c1C [Example 365] | < 1000
O=C(O)[C@]1(c2ccc(F)cc2)CC[C@@](OCC2CC2)(c2nc3ccccc3n2CC2CC2)CC1 [Example 366] | < 1000
Cc1cn(CC2CC2)c([C@]2(OCC3CC3)CC[C@](C(=O)O)(c3ccc(F)cc3)CC2)n1 [Example 368] | < 1000
Cc1nc([C@]2(OCC3CC3)CC[C@@](C(=O)O)(c3ccc(F)cc3)CC2)n(CC2CC2)c1Br [Example 369] | < 1000
CC(C)CCO[C@]1(c2nccn2CC2CC2)CC[C@@](C(=O)O)(c2ccc(F)cc2)CC1 [Example 370] | < 1000
Cc1nc([C@]2(OCCC(C)C)CC[C@](C(=O)O)(c3ccc(F)cc3)CC2)n(CC2CC2)c1C [Example 372] | < 1000
Cc1c(Br)nc([C@]2(OCC3CC3)CC[C@](C(=O)O)(c3ccccc3)CC2)n1CC1CC1 [Example 373] | < 1000
Cc1c(Br)nc([C@]2(OCCC(C)C)CC[C@](C(=O)O)(c3ccccc3)CC2)n1CC1CC1 [Example 374] | < 1000
Cc1nc([C@]2(OCCC(C)C)CC[C@](C(=O)O)(c3ccccc3)CC2)n(CC2CC2)c1Br [Example 375] | < 1000
Cc1nc([C@]2(OCCC(C)C)CC[C@](C(=O)O)(c3ccccc3)CC2)n(CC2CC2)c1C [Example 376] | < 1000
Cc1nc([C@]2(OCC3CC3)CC[C@](C(=O)O)(c3ccccc3)CC2)n(CC2CC2)c1C [Example 377] | < 1000
O=C(O)[C@]1(c2ccccc2)CC[C@@](OCC2CC2)(c2ncc(C(F)(F)F)n2CC2CC2)CC1 [Example 378] | < 1000
O=C(O)[C@]1(c2ccccc2)CC[C@](OCC2CC2)(c2ncc(C(F)(F)F)n2CC2CC2)CC1 [Example 379] | < 1000
O=C(O)[C@]1(c2ccccc2)CC[C@@](OCC2CC2)(c2nc(C(F)(F)F)cn2CC2CC2)CC1 [Example 380] | < 1000
O=C(O)[C@]1(c2ccccc2)CC[C@](OCC2CC2)(c2nc(C(F)(F)F)cn2CC2CC2)CC1 [Example 381] | < 1000
